From US8440842B2, “Antimicrobial compounds, their synthesis and their use for treatment of mammalian infections” (Leibniz-Institut fuer Naturstoff-Forschung und …, priority 2007, dated 2013) come the findings set out here.

Molecules are shown by their SMILES. In brackets after ≈: the same amount, converted by molar mass. Read-outs that look alike come from different tables or passages of the source. A value given as a limit tells only on which side of the number the result lay.

For series [1], the system named is Mycobacterium smegmatis SG 987. The experiment in a line: MIC by broth micro dilution method in Mueller-Hinton broth (NCCLS). The format is cell-based. Particulars: Mycolicibacterium smegmatis. The procedure:
(§1) Determination of the in vitro inhibitory activity of the compounds of the invention against mycobacteria.
(§2) The antibacterial activities of the compounds against Mycobacterium smegmatis SG 987, M. aurum SB66, M. vaccae IMET 10670 and M. fortuitum B were tested by determination of minimal inhibitory concentrations (MIC) by the broth micro dilution method in Mueller-Hinton broth (Difco) according to the NCCLS guidelines [National Committee for Clinical Laboratory Standards: Methods for dilution antimicrobial susceptibility tests for bacteria that grow aerobically; 5th Ed.; Villanova, Ed.; Approved standard Document M7-A5. NCCLS, (2000)].

The subject of another series is M. vaccae IMET 10670. The description is as above. Format: cell-based. To be noted: Mycolicibacterium vaccae. The procedure:
as §1, §2

For another series, the system named is M. fortuitum B. The description is as above. Format: cell-based. To be noted: Mycolicibacterium fortuitum, read-out: M. fortuitum MIC. The protocol:
as §1, §2

For series [2], the system named is M. tuberculosis H37Rv. As to the kind of experiment: resazurin reduction assay (MIC96), Alamar Blue method. Format: cell-based. To be noted: Mycobacterium tuberculosis, read-out: minimal inhibitory concentrations (MIC) M. tuberculosis H37Rv. The protocol:
Activity against M. tuberculosis H37Rv was determined by the resazurin reduction assay (MIC96) too. The method was described in detail in: P. Quillardet, O. Huisman, R. D'Ari, M. Hofnung, Proc. Natl. Acad. Sci. USA, 1982, 79, 5971-5; J. C. Palomino, A. Martin, M. Camacho, H. Guerra, J. Swings, F. Portaels, Antimicrob. Agents Chemother., 2002, 46, 2720-2.
Background: The colour change of resazurin is a common sign of viable cells or microbes.

Series [3] concerns M. tuberculosis H37Rv. As to the kind of experiment: MIC and MBC, classical method (liquid Shkolnikova medium, Lowenstein-Jensen medium). Format: cell-based. To be noted: Mycobacterium tuberculosis; for MIC: 336 h.
Setting [4] is: SG987, broth micro dilution, Mueller-Hinton broth, read-out: M. smegmatis MIC.
[5] abbreviates: IMET10670, broth micro dilution, Mueller-Hinton broth, read-out: M. vaccae MIC.
The mark [6] stands for this setting: broth micro dilution, Mueller-Hinton broth.
Setting [7] is: strain H37Rv, liquid Shkolnikova medium, 14 days at 37° C., read-out: MIC.
Setting [8] is: strain H37Rv, solid drug free Lowenstein-Jensen medium, 21-28 days, read-out: MBC.

Regarding `O=c1nc(N2CCN(Cc3ccccc3)CC2)sc2c([N+](=O)[O-])cc(C(F)(F)F)cc12` [Compound 7, 2-(4-Benzylpiperazin-1-yl)-8-nitro-6-(trifluoromethyl)-4H-1,3-benzothiazin-4-one], the melting point (in general, the temperature, or range, at which the solid turns liquid) was in the range of 161 to 163 °C. Moreover, the MIC in series [1] (setting [4]) came out at 50 ng/mL (≈ 111 nM). The MIC in the series on M. vaccae IMET 10670 (setting [5]) was found to be 50 ng/mL (≈ 111 nM). In the series with M. fortuitum B (setting [6]), the MIC is 50 ng/mL (≈ 111 nM).

In the case of `CN(Cc1ccccc1)c1nc(=O)c2cc(C(F)(F)F)cc([N+](=O)[O-])c2s1` [Compound 5, 2-[Benzyl(methyl)amino]-8-nitro-6-(trifluoromethyl)-4H-1,3-benzothiazin-4-one], the melting point lay within 120 to 124 °C. The MIC in series [1] (setting [4]) came to 15.6 ng/mL (≈ 39.5 nM). Also, in the series on M. vaccae IMET 10670 (setting [5]), the MIC turned out to be 0.5 ng/mL (≈ 1.26 nM). The MIC with M. fortuitum B (setting [6]) was determined as 15.6 ng/mL (≈ 39.5 nM). Also, in the series on M. tuberculosis H37Rv [2], the MIC is 3 ng/mL (≈ 7.59 nM). In addition, in the series on M. tuberculosis H37Rv [3] (H37RV), the MBC (commonly the lowest tested concentration that kills the bacteria rather than only halting them) was 3120 ng/mL (≈ 7890 nM) and the MIC worked out at 1560 ng/mL (≈ 3950 nM).

For `NNC(=O)c1ccncc1` [Isoniazid (INH), Isoniazid, reference compound], the figures for the MIC in the series on M. tuberculosis H37Rv [2] and in the series with M. tuberculosis H37Rv [3] (setting [7]) were 125 ng/mL (≈ 911 nM) and 780 ng/mL (≈ 5690 nM), respectively. In addition, the MBC with M. tuberculosis H37Rv [3] (setting [8]) came out at 1560 ng/mL (≈ 11400 nM).

Regarding `O=c1nc(N2CCN(c3cccc(C(F)(F)F)c3)CC2)sc2c([N+](=O)[O-])cc(C(F)(F)F)cc12` [Compound 3, 8-Nitro-6-(trifluoromethyl)-2-{4-[3-(trifluoromethyl)phenyl]piperazin-1-yl}-4H-1,3-benzothiazin-4-one], the melting point is 201 to 203 °C. Also, the MIC in series [1] (setting [4]) stood at 40 ng/mL (≈ 79.3 nM). Besides, the MIC in the series on M. vaccae IMET 10670 (setting [5]) is 3.1 ng/mL (≈ 6.15 nM). In the series with M. fortuitum B (setting [6]), the MIC was determined as 3.1 ng/mL (≈ 6.15 nM).

In turn, `Cc1ccc(Cl)cc1N1CCN(c2nc(=O)c3cc(C(F)(F)F)cc([N+](=O)[O-])c3s2)CC1` [Compound 2, 2-[4-(5-chloro-2-methylphenyl)piperazin-1-yl]-8-nitro-6-(trifluoromethyl)-4H-1,3-benzothiazin-4-one] returned a melting point of 158 to 161 °C. In series [1] (setting [4]), the MIC was found to be 50 ng/mL (≈ 103 nM). For the same molecule, the MIC with M. vaccae IMET 10670 (setting [5]) stood at 8 ng/mL (≈ 16.5 nM). Besides, in the series on M. fortuitum B (setting [6]), the MIC came to 31 ng/mL (≈ 63.9 nM).

In turn, `O=c1nc(N2CCN(c3ccc(Cl)cc3)CC2)sc2c([N+](=O)[O-])cc([N+](=O)[O-])cc12` [Compound 1, 2-[4-(4-Chlorophenyl)piperazin-1-yl]-6,8-dinitro-4H-1,3-benzothiazin-4-one] displayed a melting point of 279 to 281 °C. Further, the MIC in series [1] (SG987, read-out: M. smegmatis MIC) is 780 ng/mL (≈ 1740 nM). Further, the MIC in the series with M. vaccae IMET 10670 (IMET10670, read-out: M. vaccae MIC) turned out to be 6.2 ng/mL (≈ 13.8 nM). Also, the MIC with M. fortuitum B was determined as 780 ng/mL (≈ 1740 nM).

With `C[C@H](c1ccccc1)N(C)c1nc(=O)c2cc(C(F)(F)F)cc([N+](=O)[O-])c2s1` [Compound 9, 2-{Methyl[(1R)-1-phenylethyl]amino}-8-nitro-6-(trifluoromethyl)-4H-1,3-benzothiazin-4-one], the melting point was 110 to 113 °C. For the same molecule, the MIC in series [1] (setting [4]) is < 0.0121 ng/mL. Moreover, the MIC with M. vaccae IMET 10670 (setting [5]) is < 0.0121 ng/mL. For the same molecule, the MIC with M. fortuitum B (setting [6]) was < 0.0121 ng/mL. Besides, the MIC in the series with M. tuberculosis H37Rv [2] was 0.4 ng/mL (≈ 0.977 nM).

The molecule `CCN(Cc1ccccc1)c1nc(=O)c2cc(C(F)(F)F)cc([N+](=O)[O-])c2s1` [Compound 4, 2-[Benzyl(ethyl)amino]-8-nitro-6-(trifluoromethyl)-4H-1,3-benzothiazin-4-one] showed a melting point of 94 to 97 °C. Further, in series [1] (setting [4]), the MIC came to 6.2 ng/mL (≈ 15.1 nM). In addition, the MIC in the series with M. vaccae IMET 10670 (setting [5]) amounted to 0.8 ng/mL (≈ 1.95 nM). In addition, the MIC with M. fortuitum B (setting [6]) turned out to be 6.2 ng/mL (≈ 15.1 nM). The MIC in the series with M. tuberculosis H37Rv [2] is 2 ng/mL (≈ 4.89 nM).

Molecule `CN(Cc1ccccc1)c1nc(=O)c2cc(Cl)cc([N+](=O)[O-])c2s1` [Compound 10, 2-[Benzyl(methyl)amino]-6-chloro-8-nitro-4H-1,3-benzothiazin-4-one] displayed a melting point of 138 to 141 °C. The MIC in series [1] (setting [4]) is 6.2 ng/mL (≈ 17.1 nM). The MIC in the series on M. vaccae IMET 10670 (setting [5]) was 0.31 ng/mL (≈ 0.857 nM). In addition, the MIC in the series on M. fortuitum B (setting [6]) came out at 1.56 ng/mL (≈ 4.31 nM). Moreover, the MIC with M. tuberculosis H37Rv [2] was 25 ng/mL (≈ 69.1 nM). For the same molecule, the MIC in the series with M. tuberculosis H37Rv [3] (setting [7]) was < 390 ng/mL. Also, the MBC in the series with M. tuberculosis H37Rv [3] (setting [8]) was found to be 780 ng/mL (≈ 2160 nM).

On to `O=c1nc(N2CCN(c3ccccc3F)CC2)sc2c([N+](=O)[O-])cc(C(F)(F)F)cc12` [Compound 6, 2-[4-(2-Fluorophenyl)piperazin-1-yl]-8-nitro-6-(trifluoromethyl)-4H-1,3-benzothiazin-4-one], for which the melting point was 164 to 168 °C. Further, the MIC in series [1] (setting [4]) came to 5 ng/mL (≈ 11 nM). Moreover, the MIC with M. vaccae IMET 10670 (setting [5]) stood at 5 ng/mL (≈ 11 nM). In the series with M. fortuitum B (setting [6]), the MIC was 5 ng/mL (≈ 11 nM).

Consider `O=c1nc(NCc2ccccc2)sc2c([N+](=O)[O-])cc(C(F)(F)F)cc12` [Compound 8, 2-(Benzylamino)-8-nitro-6-(trifluoromethyl)-4H-1,3-benzothiazin-4-one], for which the melting point lay within 192 to 194 °C. The MIC in series [1] (setting [4]) came out at 0.78 ng/mL (≈ 2.05 nM). Also, in the series with M. vaccae IMET 10670 (setting [5]), the MIC is < 0.0121 ng/mL. Moreover, the MIC in the series with M. fortuitum B (setting [6]) was found to be 0.78 ng/mL (≈ 2.05 nM). Also, in the series on M. tuberculosis H37Rv [2], the MIC was found to be 50 ng/mL (≈ 131 nM). In the series with M. tuberculosis H37Rv [3] (H37RV), this molecule registered an MBC of 1560 ng/mL (≈ 4090 nM) and an MIC of 1560 ng/mL (≈ 4090 nM).
